Source: patent publication US5200429A, “Acne vulgaris treating” (Takasago International Corporation, priority 1990, dated 1993)
Converted amounts (≈) assume the structure as drawn. Like-named read-outs stand apart in the source and are kept apart here.

Key:
[1] = system: Propionibacterium acnes (ATCC 11827); assay: Minimum inhibitory concentration (MIC) against Propionibacterium acnes (Test Example 1); type: cell-based
Method: The minimum inhibitory concentration (MIC) of caryophyllene, cedrene, longifolene, and thujopsene obtained in Preparation Example against Propionibacterium acnes (ATCC 11827) was determined as follows.
The test compound was added to a 4.6% ABCM bouillon aqueous solution (prepared by dissolving 46 g of an ABCM bouillon medium produced by Eiken Kagaku K. K. in 1 l of distilled water) in a concentration of 100 μg/ml, and the solution was stepwise diluted two times with the same medium, followed by sterilization.
A 5 ml aliquot of the solution was put in a test tube and inoculated with 0.1 ml of the culture of Propionibacterium acnes which had been preliminarily cultured so as to have a cell density of 5×10^8 cells/ml. The system was static-cultured under anaerobic conditions at 37° C. for 48 hours, and the turbidity of the cultured system was measured at a wavelength of 600 nm to obtain MIC (μg/ml).

Bacillus subtilis = conditions: J. Antibact. Antifung. Agents, 8(1), 3-6 (1980); cited from earlier work
various molds = conditions: J. Antibact. Antifung. Agents, 8(1), 3-6 (1980); cited from earlier work
Escherichia coli [2] = conditions: J. Antibact. Antifung. Agents, 8(1), 3-6 (1980); cited from earlier work
Pseudomonas aeruginosa = conditions: J. Antibact. Antifung. Agents, 8(1), 3-6 (1980); cited from earlier work
Escherichia coli [3] = conditions: Indian Perfumer, 28(2), 82-87 (1984); cited from earlier work
several fungi = conditions: Indian Perfumer, 28(2), 82-87 (1984); cited from earlier work
skin = conditions: conventional use in acne vulgaris; cited from earlier work
[4] = Cutibacterium acnes, ATCC11827, anaerobic, 37° C., 48 hours, turbidity at 600 nm, read-out: MIC

Compound	MIC [1, 4]	antimicrobial activity (Escherichia coli [3])	antimicrobial activity (several fungi)	further results
C=C1[C@H]2CC[C@@H]3[C@H]2C(C)(C)CCC[C@]13C [Longifolene]	1.57 µg/mL (≈ 7.68 µM)			
CC1=CC[C@]2(C)CCCC(C)(C)[C@@]23C[C@@H]13 [Thujopsene]	6.25 µg/mL (≈ 30.6 µM)			antimicrobial activity (Bacillus subtilis): any substantial antimicrobial activity on various molds, Bacillus subtilis, Escherichia coli, and Pseudomonas aeruginosa was not exhibited; antimicrobial activity (various molds): any substantial antimicrobial activity on various molds, Bacillus subtilis, Escherichia coli, and Pseudomonas aeruginosa was not exhibited; antimicrobial activity (Escherichia coli [2]): any substantial antimicrobial activity on various molds, Bacillus subtilis, Escherichia coli, and Pseudomonas aeruginosa was not exhibited; antimicrobial activity (Pseudomonas aeruginosa): any substantial antimicrobial activity on various molds, Bacillus subtilis, Escherichia coli, and Pseudomonas aeruginosa was not exhibited
C=CCc1ccc(O)c(OC)c1 [Eugenol, reference compound]	50 µg/mL (≈ 304 µM)	strong antimicrobial activity	strong antimicrobial activity	
[H]/N=C(\N/C(=N/[H])NCCCCCCNC(=N)NC(=N)Nc1ccc(Cl)cc1)Nc1ccc(Cl)cc1 [Chlorhexidine Gluconate]				side effects (skin): side effects of causing erythema or exfoliation, causing extreme skin roughening and skin irritation
Cedrene				MIC ([1]; anaerobic, 37° C., 48 hours, turbidity at 600 nm): 1.57 µg/mL
C=C1CC/C=C(/C)CC[C@@H]2[C@@H]1CC2(C)C [Caryophyllene]		no activity	no activity	MIC ([1]; Cutibacterium acnes, ATCC11827, 48 h): 3.13 µg/mL (≈ 15.3 µM)
